Measured values taken from patent US11066414B2, “Cot modulators and methods of use thereof” (Gilead Sciences, Inc., priority 2015, dated 2021).
pEC50, pIC50: −log10 of the molar value. Like-named read-outs stand apart in the source and are kept apart here.

Experiments:
TNFα = assay: Cot Monocyte TNFα Cell Based Assay
Human Cot = Human Cot (Homo sapiens (Human), UniProt P41279); assay: High Throughput Cot Biochemical Assay
[1] = Homo sapiens, Monocyte, read-out: EC50 TNF, LPS-stimulated human monocytes, TNFα
[2] = IC50 HTRF, Cot HTRF (TR-FRET) biochemical assay
[3] = Homo sapiens, Monocyte, read-out: EC50 TNF, LPS-stimulated human monocytes, TNFα TR-FRET
[4] = IC50 HTRF, Cot HTRF (TR-FRET KinEASE) biochemical assay, 400 μM ATP

Sequence of Human Cot (P41279 30-397): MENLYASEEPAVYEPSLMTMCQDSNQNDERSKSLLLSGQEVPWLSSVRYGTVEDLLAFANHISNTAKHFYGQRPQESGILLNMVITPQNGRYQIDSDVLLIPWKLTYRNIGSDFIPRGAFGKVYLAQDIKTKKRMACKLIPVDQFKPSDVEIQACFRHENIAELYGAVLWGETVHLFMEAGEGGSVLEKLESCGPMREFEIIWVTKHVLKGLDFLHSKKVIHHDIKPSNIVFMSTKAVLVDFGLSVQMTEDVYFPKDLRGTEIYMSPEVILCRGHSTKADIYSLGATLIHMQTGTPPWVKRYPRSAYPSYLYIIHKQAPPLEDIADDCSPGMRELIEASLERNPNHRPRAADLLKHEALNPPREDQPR

Row | Compound | pEC50 (TNFα; [1]) | pIC50 (Human Cot; [2]) | pEC50 (TNFα; [3]) | pIC50 (Human Cot; [4]) | also measured
1 | COC[C@H](Nc1c(C#N)cnc2c(Cl)cc(N[C@@H](c3cccnc3)c3c[nH]nn3)cc12)c1ccccc1 [Example 203, 8-chloro-4-(((R)-2-methoxy-1-phenylethyl)amino)-6-(((S)-pyridin-3-yl(1H-1,2,3-triazol-4-yl)methyl)amino)quinoline-3-carbonitrile] | 5.04 | 5.16 | – | – | –
2 | CC(C)(C)CNc1c(C#N)cnc2c(C#N)cc(N[C@H](c3cn(C4(CO)CC4)nn3)c3cccc4ncsc34)cc12 [Example 465, (S)-6-((benzo[d]thiazol-7-yl(1-(1-(hydroxymethyl)cyclopropyl)-1H-1,2,3-triazol-4-yl)methyl)amino)-4-(neopentylamino)quinoline-3,8-dicarbonitrile] | 6.81 | 8.70 | – | – | –
3 | N#Cc1cnc2c(Cl)cc(N[C@@H](c3cocn3)c3c[nH]nn3)cc2c1N[C@@H](CO)c1ccccc1 [Example 214, 8-chloro-4-(((R)-2-hydroxy-1-phenylethyl)amino)-6-(((S)-o)(azol-4-yl(1H-1,2,3-triazol-4-yl)methyl)amino)quinoline-3-carbonitrile] | – | – | – | – | pEC50 (TNFα; read-out: EC50 TNF, LPS-stimulated human monocytes, TNFα): < 5.00; pIC50 (Human Cot; read-out: IC50 HTRF, Cot HTRF (TR-FRET) biochemical assay): < 5.00
4 | N#CCC[C@@H](Nc1c(C#N)cnc2c(Cl)cc(N[C@H](c3cn(C4CC4)nn3)c3csc4c3CCN(C3COC3)C4)cc12)c1ccccc1 [Example 84, 8-chloro-4-(((R)-3-cyano-1-phenylpropyl)amino)-6-(((S)-(1-cyclopropyl-1H-1,2,3-triazol-4-yl)(6-(oxetan-3-yl)-4,5,6,7-tetrahydrothieno[2,3-c]pyridin-3-yl)methyl)amino)quinoline-3-carbonitrile] | 8.00 | 9.00 | – | – | –
5 | COc1cc([C@H](Nc2cc(Cl)c3ncc(C#N)c(NCC(C)(C)C)c3c2)c2cn(C3(C(F)(F)F)CC3)nn2)ccn1 [Example 941, (S)-8-chloro-6-(((2-methoxypyridin-4-yl)(1-(1-(trifluoromethyl)cyclopropyl)-1H-1,2,3-triazol-4-yl)methyl)amino)-4-(neopentylamino)quinoline-3-carbonitrile] | – | – | 6.09 | 7.19 | –
6 | Cc1ccc2c([C@H](Nc3cc(C#N)c4ncc(C#N)c(NCC(C)(C)C)c4c3)c3cn(C4(C)CC4)nn3)cccc2n1 [Example 902] | – | – | – | – | pEC50 (TNFα; read-out: EC50 TNF, LPS-stimulated human monocytes, TNFα TR-FRET): 7.44; pIC50 (Human Cot; read-out: IC50 HTRF, Cot HTRF (TR-FRET KinEASE) biochemical assay, 400 μM ATP): 8.52
7 | N#Cc1cnc2c(Cl)cc(N[C@@H](c3cccnc3)c3c[nH]nn3)cc2c1N[C@@H](CCO)c1ccccc1 [Example 178, 8-chloro-4-(((S)-3-hydroxy-1-phenylpropyl)amino)-6-(((S)-pyridin-3-yl(1H-1,2,3-triazol-4-yl)methyl)amino)quinoline-3-carbonitrile] | 6.03 | 8.15 | – | – | –
8 | N#Cc1cnc2c(Cl)cc(N[C@@H](c3cccnc3)c3cn(-c4ccccc4)nn3)cc2c1Nc1cnc(F)c(F)c1 [Example 160, (S)-8-chloro-4-((5,6-difluoropyridin-3-yl)amino)-6-(((1-phenyl-1H-1,2,3-triazol-4-yl)(pyridin-3-yl)methyl)amino)quinoline-3-carbonitrile] | 6.32 | 7.96 | – | – | –
9 | CC[C@@H](Nc1c(C#N)cnc2c(Cl)cc(N[C@H](c3cn(C4CCN(C(C)(C)C)CC4)nn3)c3cccnc3C)cc12)c1ccccc1 [Example 221, 6-(((S)-(1-(1-(tert-butyl)piperidin-4-yl)-1H-1,2,3-triazol-4-yl)(2-methylpyridin-3-yl)methyl)amino)-8-chloro-4-(((R)-1-phenylpropyl)amino)quinoline-3-carbonitrile] | 7.55 | 8.70 | – | – | –
10 | Cn1ccc2c([C@H](Nc3cc(Cl)c4ncc(C#N)c(NCC(C)(C)C)c4c3)c3cn(C45CC(C4)C5)nn3)cccc2c1=O [Example 713, (S)-6-(((1-(bicyclo[1.1.1]pentan-1-yl)-1H-1,2,3-triazol-4-yl)(2-methyl-1-oxo-1,2-dihydroisoquinolin-5-yl)methyl)amino)-8-chloro-4-(neopentylamino)quinoline-3-carbonitrile] | 7.68 | 8.70 | – | – | –
11 | CC(C)(C)CNc1c(C#N)cnc2c(C#N)cc(N[C@H](c3cn(C4(C(F)(F)F)CC4)nn3)c3ccc(C#N)c4ncccc34)cc12 [Example 910, (S)-6-(((8-cyanoquinolin-5-yl)(1-(1-(trifluoromethyl)cyclopropyl)-1H-1,2,3-triazol-4-yl)methyl)amino)-4-(neopentylamino)quinoline-3,8-dicarbonitrile] | – | – | 6.83 | 8.30 | –
12 | CC(C)(C)CNc1c(C#N)cnc2c(C#N)cc(N[C@H](c3cn(CC(F)(F)F)nn3)c3cccc4ncsc34)cc12 [Example 460, (S)-6-((benzo[d]thiazol-7-yl(1-(2,2,2-trifluoroethyl)-1H-1,2,3-triazol-4-yl)methyl)amino)-4-(neopentylamino)-quinoline-3,8-dicarbonitrile] | 6.81 | 8.30 | – | – | –

Now from value to compound, other results behind:

Row | pEC50 (TNFα; [1]) | pIC50 (Human Cot; [2]) | pEC50 (TNFα; [3]) | pIC50 (Human Cot; [4]) | Compound | also measured
13 | 7.38 | 8.70 | – | – | Cc1nc(F)ccc1[C@H](Nc1cc(Cl)c2ncc(C#N)c(NCC(C)(C)C)c2c1)c1cn([C@@H](C)CF)nn1 [Example 546, 8-chloro-6-(((S)-(6-fluoro-2-methylpyridin-3-yl)(1-((S)-1-fluoropropan-2-yl)-1H-1,2,3-triazol-4-yl)methyl)amino)-4-(neopentylamino)quinoline-3-carbonitrile] | –
14 | – | – | 7.68 | 8.52 | Cc1nc(F)ccc1[C@H](Nc1cc(C#N)c2ncc(C#N)c(NCC(C)(C)C)c2c1)c1cn(C2(C(C)C)CC2)nn1 [Example 851, (S)-6-(((6-fluoro-2-methylpyridin-3-yl)(1-(1-isopropylcyclopropyl)-1H-1,2,3-triazol-4-yl)methyl)amino)-4-(neopentylamino)quinoline-3,8-dicarbonitrile] | –
15 | 6.69 | 8.22 | – | – | Cc1nc(F)ccc1[C@H](Nc1cc(Cl)c2ncc(C#N)c(NCC3(C)CCC3)c2c1)c1cn(C2(C(F)F)CC2)nn1 [Example 502, (S)-8-chloro-6-(((1-(1-(difluoromethyl)-cyclopropyl)-1H-1,2,3-triazol-4-yl)(6-fluoro-2-methylpyridin-3-yl)methyl)-amino)-4-(((1-methylcyclobutyl)methyl)-amino) quinoline-3-carbonitrile] | –
16 | – | – | 6.52 | 8.05 | COc1ccc(C(Nc2cc(Cl)c3ncc(C#N)c(NCC(C)(C)C)c3c2)c2cn(C3(C(F)(F)F)CC3)nn2)c(C)n1 (stereo not shown) [Example 978, 8-chloro-6-(((6-methoxy-2-methylpyridin-3-yl)(1-(1-(trifluoromethyl)cyclopropyl)-1H-1,2,3-triazol-4-yl)methyl)amino)-4-(neopentylamino)quinoline-3-carbonitrile] | –
17 | – | – | 7.46 | 8.70 | Cc1nc(F)ccc1[C@H](Nc1cc(C#N)c2ncc(C#N)c(NCC(C)(C)C(F)(F)F)c2c1)c1nnn(C2(C)CC2)c1F [Example 863, (S)-6-(((5-fluoro-1-(1-methylcyclopropyl)-1H-1,2,3-triazol-4-yl)(6-fluoro-2-methylpyridin-3-yl)methyl)amino)-4-((3,3,3-trifluoro-2,2-dimethylpropyl)amino)-quinoline-3,8-dicarbonitrile] | –
18 | – | – | 7.36 | 8.15 | Cc1nc(F)ccc1[C@H](Nc1cc(C#N)c2ncc(C#N)c(NCC(C)(C)C(F)(F)F)c2c1)c1nnn([C@@H](C)CF)c1F [Example 858, 6-(((S)-(5-fluoro-1-((S)-1-fluoropropan-2-yl)-1H-1,2,3-triazol-4-yl)(6-fluoro-2-methylpyridin-3-yl)methyl)amino)-4-((3,3,3-trifluoro-2,2-dimethylpropyl)amino)quinoline-3,8-dicarbonitrile] | –
19 | 6.81 | 8.05 | – | – | Cc1nc(F)ccc1[C@H](Nc1cc(F)c2ncc(C#N)c(NCC(C)(C)C)c2c1)c1cn(C2(C(F)(F)F)CC2)nn1 [Example 513, (S)-8-fluoro-6-(((6-fluoro-2-methylpyridin-3-yl)(1-(1-(trifluoromethyl)cyclopropyl)-1H-1,2,3-triazol-4-yl)methyl)amino)-4-(neopentylamino)quinoline-3-carbonitrile] | –
20 | – | – | 7.00 | 8.30 | Cc1nc(F)ccc1[C@H](Nc1cc(Cl)c2ncc(C#N)c(NCC(C)(C)C(F)(F)F)c2c1)c1nnn(C2(C(F)F)CC2)c1F [Example 948, (S)-8-chloro-6-(((1-(1-(difluoromethyl)cyclopropyl)-5-fluoro-1H-1,2,3-triazol-4-yl)(6-fluoro-2-methylpyridin-3-yl)methyl)amino)-4-((3,3,3-trifluoro-2,2-dimethylpropyl)amino)-quinoline-3-carbonitrile] | –
21 | 6.92 | 8.10 | – | – | Cc1n[nH]c2cccc([C@H](Nc3cc(Cl)c4ncc(C#N)c(NCC(C)(C)C)c4c3)c3cn(C4(C(F)F)CC4)nn3)c12 [Example 556, (S)-8-chloro-6-(((1-(1-(difluoromethyl)cyclo-propyl)-1H-1,2,3-triazol-4-yl)(3-methyl-1H-indazol-4-yl)methyl)amino)-4-(neopentyl-amino)quinoline-3-carbonitrile] | –
22 | – | – | 6.00 | 7.70 | Cc1nc(F)ccc1[C@H](Nc1cc(C#N)c2ncc(C#N)c(NCC3C(C)(C)C3(C)C)c2c1)c1cn(C2(C(F)F)CC2)nn1 [Example 845, (S)-6-(((1-(1-(difluoromethyl)-cyclopropyl)-1H-1,2,3-triazol-4-yl)(6-fluoro-2-methylpyridin-3-yl)methyl)amino)-4-(((2,2,3,3-tetramethylcyclopropyl)methyl)-amino)quinoline-3,8-dicarbonitrile] | –
23 | 7.62 | 9.00 | – | – | Cc1nc(F)ccc1[C@H](Nc1cc(C#N)c2ncc(C#N)c(NCC(C)(C)C)c2c1)c1cn([C@@H]2C[C@@H]2F)nn1 [Example 622, 6-(((S)-(6-fluoro-2-methylpyridin-3-yl)(1-((1R,2S)-2-fluorocyclopropyl)-1H-1,2,3-triazol-4-yl)methyl)amino)-4-(neopentylamino)quinoline-3,8-dicarbonitrile] | –
